Assay results reported in ChEMBL document CHEMBL4706481, “Optimization and evaluation of novel tetrahydropyrido[4,3-d]pyrimidine derivatives as ATX inhibitors for cardiac and hepatic fibrosis” (Eur J Med Chem, 2020).
Activity calls are given as the source filed them. The calls are words filed in the database; no cut-off is given here.

Tests used:
[1] = Antiproliferative activity against Wistar/Sprague-Dawley rat cardiac fibroblasts assessed as inhibition of cell proliferation at 10 uM measured after 24 hrs by MTT assay relative to control; format: functional, CF [Rat heart fibroblast]; conditions: Fibroblast
Autotaxin [2] = target: T1, Autotaxin (Homo sapiens, UniProt Q13822); assay: Inhibition of glycosylated human ATX using FS-3 as substrate preincubated for 45 mins under shaking condition followed by substrate addition and measured after 45 mins by fluorescence assay
[3] = Antiproliferative activity against Sprague-Dawley rat T-HSC/Cl-6 assessed as inhibition of cell proliferation at 10 uM measured after 24 hrs by MTT assay relative to control; format: functional
[4] = Antifibrotic activity against TGFbeta-induced fibrosis in mouse cardiac fibroblasts assessed as reduction in collagen content at 10 ug/ml pretreated with TGFbeta followed by compound treatment and measured after 12 hrs by SDS-PAGE analysis relative to control; format: functional, Cardiac fibroblast; parameters: scale not given: the % may be the effect or the level left; conditions: dose 10 µg/ml
[5] = Antiproliferative activity against Sprague-Dawley rat T-HSC/Cl-6 assessed as inhibition of cell proliferation measured after 24 hrs by MTT assay; format: functional; conditions: T-HSC/Cl-6, 24 h
[6] = Antiproliferative activity against Wistar/Sprague-Dawley rat cardiac fibroblasts assessed as inhibition of cell proliferation measured after 24 hrs by MTT assay; format: functional, CF [Rat heart fibroblast]; conditions: Fibroblast
Cardiac fibroblast = assay: Antifibrotic activity against TGFbeta-induced fibrosis in mouse cardiac fibroblasts assessed as reduction in collagen content at 10 ug/ml pretreated with TGFbeta followed by compound treatment and measured after 12 hrs by SDS-PAGE analysis; format: functional; conditions: dose 10.0 µg/ml
Mus musculus [7] = assay: Antifibrotic activity against CCl4-induced fibrosis in Kunming mouse assessed as loss of fiber accumulation at 40 mg/kg, po administered for 2 weeks post CCl-4 challenge by Masson staining based light microscopic analysis; format: functional, organism-based
Mus musculus [8] = assay: Antifibrotic activity against CCl4-induced fibrosis in Kunming mouse assessed as decrease in steatosis at 20 mg/kg, po administered for 2 weeks post CCl-4 challenge by hematoxylin and eosin staining based light microscopic analysis; format: functional, organism-based
Mus musculus [9] = assay: Antifibrotic activity against CCl4-induced fibrosis in Kunming mouse assessed as decrease in inflammatory cells infiltration at 20 mg/kg, po administered for 2 weeks post CCl-4 challenge by Masson staining based light microscopic analysis; format: functional, organism-based
Mus musculus [10] = assay: Antifibrotic activity against CCl4-induced fibrosis in Kunming mouse assessed as loss of fiber accumulation at 40 mg/kg, po administered for 2 weeks post CCl-4 challenge by hematoxylin and eosin staining based light microscopic analysis; format: functional, organism-based
Mus musculus [11] = assay: Antifibrotic activity against CCl4-induced fibrosis in Kunming mouse assessed as loss of bile ductules at 40 mg/kg, po administered for 2 weeks post CCl-4 challenge by Masson staining based light microscopic analysis; format: functional, organism-based
Mus musculus [12] = assay: Antifibrotic activity against CCl4-induced fibrosis in Kunming mouse assessed as loss of inflammatory cells at 40 mg/kg, po administered for 2 weeks post CCl-4 challenge by hematoxylin and eosin staining based light microscopic analysis; format: functional, organism-based
Mus musculus [13] = assay: Antifibrotic activity against CCl4-induced fibrosis in Kunming mouse assessed as decrease in fiber accumulation at 20 mg/kg, po administered for 2 weeks post CCl-4 challenge by Masson staining based light microscopic analysis; format: functional, organism-based
Mus musculus [14] = assay: Antifibrotic activity against CCl4-induced fibrosis in Kunming mouse assessed as loss of inflammatory cells at 40 mg/kg, po administered for 2 weeks post CCl-4 challenge by Masson staining based light microscopic analysis; format: functional, organism-based
Mus musculus [15] = assay: Antifibrotic activity against CCl4-induced fibrosis in Kunming mouse assessed as decrease in steatosis at 20 mg/kg, po administered for 2 weeks post CCl-4 challenge by Mason staining based light microscopic analysis; format: functional, organism-based
Mus musculus [16] = assay: Antifibrotic activity against CCl4-induced fibrosis in Kunming mouse assessed as decrease in inflammatory cells infiltration at 20 mg/kg, po administered for 2 weeks post CCl-4 challenge by hematoxylin and eosin staining based light microscopic analysis; format: functional, organism-based
Mus musculus [17] = assay: Antifibrotic activity against CCl4-induced fibrosis in Kunming mouse assessed as loss of bile ductules at 40 mg/kg, po administered for 2 weeks post CCl-4 challenge by hematoxylin and eosin staining based light microscopic analysis; format: functional, organism-based
Mus musculus [18] = assay: Antifibrotic activity against CCl4-induced fibrosis in Kunming mouse assessed as decrease in fiber accumulation at 20 mg/kg, po administered for 2 weeks post CCl-4 challenge by hematoxylin and eosin staining based light microscopic analysis; format: functional, organism-based
Autotaxin [19] = target: T1, Autotaxin; assay: Inhibition of human ATX using FS-3 as substrate measured after 30 mins by fluorescence plate reader assay

Compound | IC50 (Autotaxin [2]) | inhibition at 10 µM [1] | inhibition at 10 µM [3] | further results
O=C(N/N=C/c1cc(C(F)(F)F)cc(C(F)(F)F)c1)N1CCc2ncnc(Nc3cccc(C(F)(F)F)c3)c2C1 |  | 42.5% | 62.9% | 
O=C(N/N=C/c1ccco1)N1CCc2ncnc(Nc3cccc(C(F)(F)F)c3)c2C1 |  | 54.1% | 71.5% | 
Cc1cc(C)c(/C=N/NC(=O)N2CCc3ncnc(Nc4ccc(F)c(Cl)c4)c3C2)c(C)c1 |  | 54% | 58.1% | 
O=C(N/N=C/c1ccc(OC(F)(F)F)cc1)N1CCc2ncnc(Nc3cccc(Br)c3)c2C1 |  | 48.8% | 54.8% | 
Cc1ccc(/C=N/NC(=O)N2CCc3ncnc(Nc4cccc(Br)c4)c3C2)cc1C |  | 41.7% | 49.2% | 
O=C(N/N=C/c1ccccc1)N1CCc2ncnc(Nc3cccc(C(F)(F)F)c3)c2C1 |  | 48.3% | 57.4% | 
O=C(N/N=C/c1ccc(F)c(Cl)c1)N1CCc2ncnc(Nc3cccc(Br)c3)c2C1 |  | 45.1% | 60.3% | 
O=C(N/N=C/c1cc(F)c(F)cc1Cl)N1CCc2ncnc(Nc3cccc(Br)c3)c2C1 |  | 41.7% | 56.7% | 
O=C(CCc1nc2ccccc2s1)N1CCc2ncnc(Cc3ccc(F)cc3)c2C1 | 10.4 nM | 68.4% | 73.8% | IC50 (Autotaxin [19]): 29.1 nM
O=C(N/N=C/c1ccc[nH]1)N1CCc2ncnc(Nc3cccc(C(F)(F)F)c3)c2C1 |  | 51.3% | 68.8% | 
O=C(N/N=C/c1cccnc1)N1CCc2ncnc(Nc3cccc(C(F)(F)F)c3)c2C1 |  | 41.2% | 63.2% | 

Now from value to compound, other results behind:

IC50 (Autotaxin [2]) | Compound | inhibition at 10 µM [1] | inhibition at 10 µM [3] | further results
43.8 nM | O=C(N/N=C/c1cc([N+](=O)[O-])ccc1Cl)N1CCc2ncnc(Nc3ccc(F)c(Cl)c3)c2C1 | 72.1% | 74.7% | 
31.3 nM | O=C(N/N=C/c1ccc(O)c(Br)c1)N1CCc2ncnc(Nc3ccc(F)c(Cl)c3)c2C1 | 69% | 72% | 
35.3 nM | O=C(N/N=C/c1cccc(Br)c1)N1CCc2ncnc(Nc3cccc(C(F)(F)F)c3)c2C1 | 54.6% | 68.1% | 
24.2 nM | O=C(N/N=C/c1ccc(Cl)cc1)N1CCc2ncnc(Nc3ccc(F)c(Cl)c3)c2C1 | 81.5% | 79.4% | Activity [4]: 74.4%; IC50 [5]: 1100 nM; IC50 [6]: 870 nM; Activity (Cardiac fibroblast): Active
41.2 nM | O=C(N/N=C/c1ccc(OC(F)(F)F)cc1)N1CCc2ncnc(Nc3cccc(C(F)(F)F)c3)c2C1 | 67.1% | 65% | 
15.3 nM | O=C(N/N=C/c1ccc(Cl)cc1)N1CCc2ncnc(Nc3cccc(C(F)(F)F)c3)c2C1 | 73.8% | 83.7% | Activity (Mus musculus [7]): Active; Activity (Mus musculus [8]): Active; IC50 [5]: 780 nM; IC50 [6]: 1210 nM; Activity (Mus musculus [9]): Active; Activity (Mus musculus [10]): Active; Activity (Cardiac fibroblast): Active; Activity (Mus musculus [11]): Active; Activity (Mus musculus [12]): Active; Activity (Mus musculus [13]): Active; Activity (Mus musculus [14]): Active; Activity (Mus musculus [15]): Active; Activity (Mus musculus [16]): Active; Activity (Mus musculus [17]): Active; Activity (Mus musculus [18]): Active
33.9 nM | O=C(N/N=C/c1ccc(Cl)cc1Cl)N1CCc2ncnc(Nc3cccc(C(F)(F)F)c3)c2C1 | 58.5% | 66.3% | 
29.1 nM | Cc1ccc(/C=N/NC(=O)N2CCc3ncnc(Nc4cccc(C(F)(F)F)c4)c3C2)cc1 | 72.6% | 77.2% | IC50 [5]: 1140 nM; IC50 [6]: 1510 nM
29.1 nM | O=C(N/N=C/c1cc(C(F)(F)F)cc(C(F)(F)F)c1)N1CCc2ncnc(Nc3cccc(Br)c3)c2C1 | 70.1% | 62.1% | 
21 nM | CS(=O)(=O)c1ccc(/C=N/NC(=O)N2CCc3ncnc(Nc4ccc(F)c(Cl)c4)c3C2)cc1 | 66.2% | 60.3% | 
26.9 nM | O=C(N/N=C/c1ccc(F)cc1Cl)N1CCc2ncnc(Nc3cccc(C(F)(F)F)c3)c2C1 | 55.2% | 70.6% | 
27.5 nM | O=C(N/N=C/c1ccc(Cl)cc1)N1CCc2ncnc(Nc3cccc(Br)c3)c2C1 | 61.1% | 72.5% | 
35.8 nM | CS(=O)(=O)c1ccc(/C=N/NC(=O)N2CCc3ncnc(Nc4cccc(C(F)(F)F)c4)c3C2)cc1 | 45.9% | 61.5% | 
30.2 nM | O=C(N/N=C/c1cccc(C(F)(F)F)c1)N1CCc2ncnc(Nc3cccc(Br)c3)c2C1 | 51.8% | 64.8% | 
34.7 nM | CS(=O)(=O)c1ccc(/C=N/NC(=O)N2CCc3ncnc(Nc4cccc(Br)c4)c3C2)cc1 | 43.7% | 55% | 
